Measurements from PubChem BioAssay (NCI).
Several values for one entry are separate records, joined by “and”; a condition that tells them apart may be missing. Equal values may be shown once.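 Growth conditions: 96-well plates. Treatment: test compound, 48 hours, 5 concentrations. Analysis: linear interpolation between bracketing concentrations; unreached endpoints set to highest concentration. Abbreviation: GI50, concentration required for 50% inhibition of growth. TGI: concentration producing complete growth inhibition.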

What was measured:
Assay in all cases: DTP human tumour cell line panel, 48 h
T-47D breast = system: T-47D breast
MDA-MB-231 breast = system: MDA-MB-231 breast
OVCAR-5 ovarian = system: OVCAR-5 ovarian
OVCAR-3 ovarian = system: OVCAR-3 ovarian
MDA-N = system: MDA-N
MALME-3M melanoma = system: MALME-3M melanoma
IGROV1 ovarian = system: IGROV1 ovarian
786-0 renal = system: 786-0 renal
OVCAR-4 ovarian = system: OVCAR-4 ovarian
A549 NSCLC = system: A549 NSCLC
A498 renal = system: A498 renal

N#CCCC1C(C#N)C2CC1C1C3C=CC(C3)C21 (stereo not drawn)
TGI (T-47D breast): > 100 µM | TGI (MDA-MB-231 breast): > 100 µM | TGI (OVCAR-5 ovarian): > 100 µM | TGI (OVCAR-3 ovarian): > 100 µM | TGI (MDA-N): > 100 µM | TGI (MALME-3M melanoma): > 100 µM | TGI (IGROV1 ovarian): > 100 µM | TGI (786-0 renal): > 100 µM | TGI (OVCAR-4 ovarian): > 100 µM | TGI (A549 NSCLC): > 100 µM

Nc1ccc2c(c1)C(=O)c1ccccc1-2
TGI (T-47D breast): > 100 µM | TGI (MDA-MB-231 breast): > 100 µM | TGI (OVCAR-5 ovarian): > 100 µM | TGI (OVCAR-3 ovarian): > 100 µM | TGI (MALME-3M melanoma): > 100 µM | TGI (IGROV1 ovarian): > 100 µM | TGI (786-0 renal): > 100 µM | TGI (A498 renal): > 100 µM | TGI (OVCAR-4 ovarian): > 100 µM | TGI (A549 NSCLC): > 100 µM

O=C(Nn1c(-c2ccccc2)nc2ccccc2c1=O)c1ccccn1
TGI (T-47D breast): > 100 µM | TGI (MDA-MB-231 breast): > 100 µM | TGI (OVCAR-3 ovarian): > 100 µM | TGI (MALME-3M melanoma): > 100 µM | TGI (IGROV1 ovarian): > 100 µM | TGI (786-0 renal): > 100 µM | TGI (A498 renal): > 100 µM | TGI (OVCAR-4 ovarian): > 100 µM | TGI (A549 NSCLC): > 100 µM

COC(=O)c1ccc(-c2nc(C#N)c(N)o2)cc1
TGI (T-47D breast): > 100 µM | TGI (MDA-MB-231 breast): 85.8 µM | TGI (OVCAR-5 ovarian): > 100 µM | TGI (OVCAR-3 ovarian): > 100 µM | TGI (MALME-3M melanoma): > 100 µM | TGI (IGROV1 ovarian): > 100 µM | TGI (786-0 renal): > 100 µM | TGI (OVCAR-4 ovarian): > 100 µM | TGI (A549 NSCLC): > 100 µM

CCOc1ccc2[nH]c3c(C)c4cc[n+](C)cc4c(C)c3c2c1
GI50 (OVCAR-5 ovarian): 10.3 µM and 38.8 µM | TGI (OVCAR-5 ovarian): > 100 µM | TGI (OVCAR-3 ovarian): 22.5 µM and 51.7 µM | GI50 (MALME-3M melanoma): 0.417 µM and 1.43 µM | TGI (MALME-3M melanoma): 3.18 µM and 4.52 µM | TGI (IGROV1 ovarian): 32 µM and > 44.7 µM | TGI (786-0 renal): 1.62 µM and 2.43 µM | GI50 (A498 renal): 11.1 µM and 48 µM | TGI (A498 renal): > 100 µM | TGI (OVCAR-4 ovarian): 15.2 µM and 26.2 µM | TGI (A549 NSCLC): 43.9 µM and > 100 µM

COP(=O)(OC)C(N)CCSC (stereo not drawn)
TGI (OVCAR-5 ovarian): > 100 µM | TGI (OVCAR-3 ovarian): > 100 µM | TGI (MDA-N): > 100 µM | TGI (MALME-3M melanoma): > 100 µM | TGI (IGROV1 ovarian): > 100 µM | TGI (786-0 renal): > 100 µM | TGI (OVCAR-4 ovarian): > 100 µM | TGI (A549 NSCLC): > 100 µM

CC1(O)C=CC2CCC1C2O (stereo not drawn)
TGI (OVCAR-5 ovarian): > 100 µM | TGI (OVCAR-3 ovarian): > 100 µM | TGI (MALME-3M melanoma): > 100 µM | TGI (IGROV1 ovarian): > 100 µM | TGI (786-0 renal): 75.5 µM | TGI (A498 renal): > 100 µM | TGI (OVCAR-4 ovarian): > 100 µM | TGI (A549 NSCLC): > 100 µM

COC(=O)c1sc(=S)sc1SCc1ccccc1CSc1sc(=S)sc1C(=O)OC
TGI (MDA-MB-231 breast): > 100 µM | TGI (OVCAR-5 ovarian): > 100 µM | TGI (OVCAR-3 ovarian): > 100 µM | TGI (MDA-N): > 100 µM | TGI (MALME-3M melanoma): > 100 µM | TGI (IGROV1 ovarian): > 100 µM | TGI (786-0 renal): > 100 µM | TGI (A498 renal): > 100 µM | TGI (OVCAR-4 ovarian): > 100 µM | TGI (A549 NSCLC): > 100 µM

O=C(/C=C/c1ccc(-c2ccccc2[N+](=O)[O-])o1)NCc1ccc(C(=O)NCCc2ccccc2)cc1
TGI (T-47D breast): > 100 µM | TGI (MDA-MB-231 breast): > 100 µM | TGI (OVCAR-5 ovarian): > 100 µM | TGI (OVCAR-3 ovarian): > 100 µM | TGI (MALME-3M melanoma): > 100 µM | TGI (IGROV1 ovarian): > 100 µM | TGI (786-0 renal): > 100 µM | TGI (A498 renal): > 100 µM | TGI (OVCAR-4 ovarian): > 100 µM | TGI (A549 NSCLC): > 100 µM

O=c1[nH]c(=O)n(C2OC(COP(=O)(O)OP(=O)(O)O)C(O)C2O)cc1F (stereo not drawn)
TGI (OVCAR-5 ovarian): > 44.1 µM | TGI (OVCAR-3 ovarian): > 50 µM | TGI (MALME-3M melanoma): > 50 µM | TGI (IGROV1 ovarian): > 50 µM | TGI (786-0 renal): 7.09 µM | TGI (A498 renal): > 50 µM | TGI (OVCAR-4 ovarian): > 26.3 µM | TGI (A549 NSCLC): > 41.4 µM

CCOC(=O)c1ccc2nc(NC(=O)COC(=O)CSc3nc(C)cc(C)n3)sc2c1
TGI (T-47D breast): 63.6 µM | TGI (MDA-MB-231 breast): > 100 µM | TGI (OVCAR-5 ovarian): 86.1 µM | TGI (OVCAR-3 ovarian): 91.5 µM | TGI (MALME-3M melanoma): > 100 µM | TGI (IGROV1 ovarian): > 100 µM | TGI (786-0 renal): > 100 µM | TGI (A498 renal): > 100 µM | TGI (OVCAR-4 ovarian): > 100 µM | TGI (A549 NSCLC): > 100 µM

O=C1c2[nH]cc(CN3CCNCC3)c2C(=O)c2c1c(O)c1ccccc1c2O
GI50 (T-47D breast): 13.8 µM | TGI (T-47D breast): 34.4 µM | GI50 (MDA-MB-231 breast): 1.51 µM | TGI (MDA-MB-231 breast): 3.18 µM | GI50 (OVCAR-5 ovarian): 1.86 µM | TGI (OVCAR-5 ovarian): 4.13 µM | GI50 (OVCAR-3 ovarian): 1.77 µM | TGI (OVCAR-3 ovarian): 4.05 µM | GI50 (MALME-3M melanoma): 6.3 µM | TGI (MALME-3M melanoma): 13.3 µM | GI50 (A498 renal): 1.01 µM | TGI (A498 renal): 2.38 µM

COc1ccc(/C=C/c2cc(O)cc(OC)c2)cc1
TGI (T-47D breast): > 100 µM | TGI (MDA-MB-231 breast): > 100 µM | TGI (OVCAR-5 ovarian): > 100 µM | TGI (OVCAR-3 ovarian): > 100 µM | TGI (MALME-3M melanoma): > 100 µM | TGI (IGROV1 ovarian): > 100 µM | TGI (786-0 renal): > 100 µM | TGI (A498 renal): > 100 µM | TGI (OVCAR-4 ovarian): > 100 µM | TGI (A549 NSCLC): > 100 µM

Cc1cc(C)c(S(=O)(=O)N(CCCCN)OCCCN)c(C)c1
TGI (T-47D breast): 33.4 µM | TGI (OVCAR-5 ovarian): 35.6 µM | TGI (OVCAR-3 ovarian): 36.3 µM | TGI (MDA-N): 31.1 µM | TGI (MALME-3M melanoma): 36.3 µM | TGI (IGROV1 ovarian): 29.4 µM | TGI (OVCAR-4 ovarian): 32.3 µM | TGI (A549 NSCLC): 36.1 µM

CC1(C)COC(c2cccc(C3=NC(C)(C)CO3)c2Br)=N1
TGI (T-47D breast): > 100 µM | TGI (MDA-MB-231 breast): > 100 µM | TGI (OVCAR-5 ovarian): > 100 µM | TGI (MALME-3M melanoma): > 100 µM | TGI (IGROV1 ovarian): > 100 µM | TGI (786-0 renal): > 100 µM | TGI (OVCAR-4 ovarian): > 100 µM | TGI (A549 NSCLC): > 100 µM

C/C(=N\NC(N)=O)C(CN1CCCCC1)C(c1ccccc1)c1c(O)c2ccccc2oc1=O (stereo not drawn)
GI50 (T-47D breast): > 100 µM | TGI (T-47D breast): > 100 µM | GI50 (MDA-MB-231 breast): > 100 µM | TGI (MDA-MB-231 breast): > 100 µM | TGI (OVCAR-5 ovarian): > 100 µM | TGI (OVCAR-3 ovarian): > 100 µM | TGI (MALME-3M melanoma): > 100 µM | TGI (IGROV1 ovarian): > 100 µM | TGI (786-0 renal): > 59.5 µM | TGI (A498 renal): > 100 µM | TGI (OVCAR-4 ovarian): > 100 µM | TGI (A549 NSCLC): > 100 µM
